Measurements: US9216981B2, “Purinylpyridinylamino-2,4-difluorophenyl sulfonamide derivative, pharmaceutically acceptable salt thereof, preparation method thereof, and pharmaceutical composition with inhibitory activity against Raf kinase, containing same as active ingredient” (Medpacto, Inc., priority 2010, dated 2015)

Key:
[1] = biological target: B-Raf (Homo sapiens (Human), UniProt P15056); assay: B-Raf kinase activity (B-Raf/MEK1/MAPK2 cascade, MBP phosphorylation, [γ-32P]ATP); type: biochemical; details: activated B-Raf, inactivated MEK1, inactivated MAPK2, 30° C., 30 minutes, read-out: B-Raf Enzyme Activity
Description: To check the B-Raf kinase inhibitory activity of the compounds of the present invention, the following experiments were conducted.
20 μl of diluting solvent (20 mM MOPS, pH 7.2, 25 mM β-glycerol phosphate, 5 mM EGTA, 1 mM sodium orthovanadate, 1 mM dithiothreitol) and 10 μl of Mg/ATP mixed solution (500 μM ATP, 75 mM magnesium chloride) were added into a centrifuge tube, the derivative compound of Formula 1 was added or the compounds of the Examples were not added as a control group, and then 1 ng of activated B-Raf, 0.4 ng of inactivated MEK1, and 1 μg of inactivated MAPK2 were added. The solutions in the tube were collected on the bottom via centrifugation and were reacted at 30° C. for 30 minutes. After taking 4 μl of the mixed solution, the test proceeded to the next step.
(2) Phosphorylation of Matrix Protein MBP by MAPK2
10 μl of diluting solvent, 20 μg of MBP used as a matrix, and 10 μl of diluted [γ-32P]ATP (1 μCi/μL) were added into the 4 μl of the mixed solution obtained from (1). The solutions in the tube were collected on the bottom via centrifugation and were reacted at 30° C. for 30 minutes. And 25 μl of the reacted solution was put carefully on the center of a filter paper (2 cm×2 cm P81) for 30 seconds. Afterwards, the filter paper was cleaned with 0.75% phosphoric acid for 10 minutes three times and with acetone for 5 minutes one time. The filter paper was then moved to a scintillation vial and 5 ml of scintillation cocktail was added thereto. The inhibition rate (IC50) over B-Raf activity was measured by reading radioactivity through a scintillation counter while comparing to the control group.

[2] = tested on: A375P cell line; assay: B-Raf cell activity inhibition (A375P growth inhibition, MTT assay); type: cell-based; details: A375P human melanoma, V600E mutant of B-Raf, 72 hours
Description: To check the B-Raf cell activity inhibitory capability of the compounds of the present invention, the following experiments were conducted in A375P cell line (ATCC). […] A375 cell was maintained in DMEM supplemented with 10% fetal bovine serum, glutamine (2 mM), penicillin (100 U/mL), and streptomycin (100 μg/mL). The cell was maintained at 37° C., and in 5% CO2 and 100% humidity. To conduct the growth inhibition test, the cell was plated by using a white 384-well microplate, with 1000 cells/20 μl plated per 1 well. After 24 hours, 5 μl of 5× stock solution of drug was added. All the drugs were initially prepared with 200× stock solution in DMSO, and the final concentration of DMSO was 0.5%. The cell was incubated at 37° C. for 72 hours. For MTT assay, ‘CellTiter 96 (R) Non-Radioactive Cell Proliferation Assay (G4100)’ kit by Promega Corp. was used. 15 μl of dye solution of the Promega kit was put into each well and was cultured in the incubator for 4 hours. And 100 μl of each Solubilization/Stop Solution substance of the kit was added and fixed in the incubator for 24 hours again. And then, absorbance was measured by using a 96-well plate reader with 570 nm of absorbance.

Sequence of B-Raf (P15056 whole entry): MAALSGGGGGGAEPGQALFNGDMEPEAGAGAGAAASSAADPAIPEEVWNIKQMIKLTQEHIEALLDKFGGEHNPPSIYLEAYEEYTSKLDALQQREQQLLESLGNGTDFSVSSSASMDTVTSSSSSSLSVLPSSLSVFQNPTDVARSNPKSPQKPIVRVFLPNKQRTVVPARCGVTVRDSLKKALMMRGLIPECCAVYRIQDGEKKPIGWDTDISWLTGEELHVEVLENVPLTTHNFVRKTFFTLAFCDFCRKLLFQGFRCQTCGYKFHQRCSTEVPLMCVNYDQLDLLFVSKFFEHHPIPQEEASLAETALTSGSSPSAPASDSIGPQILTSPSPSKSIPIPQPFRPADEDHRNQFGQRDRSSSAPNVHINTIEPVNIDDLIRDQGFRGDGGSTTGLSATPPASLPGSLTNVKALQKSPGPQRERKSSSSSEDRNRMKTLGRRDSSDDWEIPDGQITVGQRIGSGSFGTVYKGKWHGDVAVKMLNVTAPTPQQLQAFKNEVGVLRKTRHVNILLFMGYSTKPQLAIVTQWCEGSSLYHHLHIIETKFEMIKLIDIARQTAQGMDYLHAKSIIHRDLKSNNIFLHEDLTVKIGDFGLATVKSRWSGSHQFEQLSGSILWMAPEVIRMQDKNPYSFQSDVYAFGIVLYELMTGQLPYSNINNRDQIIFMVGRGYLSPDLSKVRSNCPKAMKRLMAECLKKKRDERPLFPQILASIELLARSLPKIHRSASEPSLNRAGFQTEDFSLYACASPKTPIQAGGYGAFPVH

| IC50 [1] | IC50 [2] | Structure (SMILES) |
| --- | --- | --- |
| 80 nM | 760 nM | Cc1cccc(Cl)c1S(=O)(=O)Nc1ccc(F)c(Nc2ncccc2-c2ncnc3[nH]cnc23)c1F [Example 27, N-(3-(3-(9H-purin-6-yl)pyridin-2-ylamino)-2,4-difluorophenyl)-2-chloro-6-methylbenzenesulfonamide] |
| 550 nM | 4200 nM | Cn1ccc2c(S(=O)(=O)Nc3ccc(F)c(Nc4ncccc4-c4ncnc5[nH]cnc45)c3F)cccc21 [Example 41, N-(3-(3-(9H-purin-6-yl)pyridin-2-ylamino)-2,4-difluorophenyl)-1-methyl-1H-indole-4-sulfonamide] |
| 30 nM | 5200 nM | O=S(=O)(Nc1ccc(F)c(Nc2ncccc2-c2ncnc3[nH]cnc23)c1F)c1ccc(C(F)(F)F)cc1 [Example 3, N-(3-(3-(9H-purin-6-yl)pyridin-2-ylamino)-2,4-difluorophenyl)-4-(trifluoromethyl)benzenesulfonamide] |
| > 10000 nM | > 15000 nM | Cn1ccc2cc(S(=O)(=O)Nc3ccc(F)c(Nc4ncccc4-c4ncnc5[nH]cnc45)c3F)ccc21 [Example 40, N-(3-(3-(9H-purin-6-yl)pyridin-2-ylamino)-2,4-difluorophenyl)-1-methyl-1H-indole-5-sulfonamide] |
| 120 nM | 1370 nM | Cn1cc(S(=O)(=O)Nc2ccc(F)c(Nc3ncccc3-c3ncnc4[nH]cnc34)c2F)cn1 [Example 43, N-(3-(3-(9H-purin-6-yl)pyridin-2-ylamino)-2,4-difluorophenyl)-1-methyl-1H-pyrazole-4-sulfonamide] |
| 30 nM | 330 nM | Cc1cc(S(=O)(=O)Nc2ccc(F)c(Nc3ncccc3-c3ncnc4[nH]cnc34)c2F)c(C(F)(F)F)o1 [Example 26, N-(3-(3-(9H-purin-6-yl)pyridin-2-ylamino)-2,4-difluorophenyl)-5-methyl-2-(trifluoromethyl)furan-3-sulfonamide] |
| 7 nM | 40 nM | O=S(=O)(Nc1ccc(F)c(Nc2ncccc2-c2ncnc3[nH]cnc23)c1F)c1ccsc1 [Example 17, N-(3-(3-(9H-purin-6-yl)pyridin-2-ylamino)-2,4-difluorophenyl)thiophene-3-sulfonamide] |
| 800 nM | 5870 nM | Cn1ccc2cccc(S(=O)(=O)Nc3ccc(F)c(Nc4ncccc4-c4ncnc5[nH]cnc45)c3F)c21 [Example 42, N-(3-(3-(9H-purin-6-yl)pyridin-2-ylamino)-2,4-difluorophenyl)-1-methyl-1H-indole-7-sulfonamide] |
| 40 nM | 500 nM | O=S(=O)(Nc1ccc(F)c(Nc2ncccc2-c2ncnc3[nH]cnc23)c1F)c1cccc(Cl)c1Cl [Example 34, N-(3-(3-(9H-purin-6-yl)pyridin-2-ylamino)-2,4-difluorophenyl)-2,3-chlorobenzenesulfonamide] |
| 1 nM | 11000 nM | O=S(=O)(Nc1ccc(F)c(Nc2ncccc2-c2ncnc3[nH]cnc23)c1F)c1ccco1 [Example 15, N-(3-(3-(9H-purin-6-yl)pyridin-2-ylamino)-2,4-difluorophenyl)furan-2-sulfonamide] |
| – | 200 nM | O=S(=O)(Nc1ccc(F)c(Nc2ncccc2-c2ncnc3[nH]cnc23)c1F)c1ccc(Cl)s1 [Example 44] |
| 80 nM | 720 nM | O=S(=O)(Nc1ccc(F)c(Nc2ncccc2-c2ncnc3[nH]cnc23)c1F)c1cccc(Cl)c1F [Example 29, N-(3-(3-(9H-purin-6-yl)pyridin-2-ylamino)-2,4-difluorophenyl)-3-chloro-2-fluorobenzenesulfonamide] |
| 90 nM | 810 nM | O=S(=O)(Nc1ccc(F)c(Nc2ncccc2-c2ncnc3[nH]cnc23)c1F)c1cccc2ccoc12 [Example 37, N-(3-(3-(9H-purin-6-yl)pyridin-2-ylamino)-2,4-difluorophenyl)benzofuran-7-sulfonamide] |
| 15 nM | 60 nM | Cc1ccc(S(=O)(=O)Nc2ccc(F)c(Nc3ncccc3-c3ncnc4[nH]cnc34)c2F)o1 [Example 23, N-(3-(3-(9H-purin-6-yl)pyridin-2-ylamino)-2,4-difluorophenyl)-5-methylfuran-2-sulfonamide] |
| 2 nM | 6 nM | Cc1c(Cl)cccc1S(=O)(=O)Nc1ccc(F)c(Nc2ncccc2-c2ncnc3[nH]cnc23)c1F [Example 14, N-(3-(3-(9H-purin-6-yl)pyridin-2-ylamino)-2,4-difluorophenyl)-3-chloro-2-methyl benzenesulfonamide] |

More lines, now with the values behind:

| Structure (SMILES) | IC50 [1] | IC50 [2] |
| --- | --- | --- |
| O=[N+]([O-])c1ccccc1CS(=O)(=O)Nc1ccc(F)c(Nc2ncccc2-c2ncnc3[nH]cnc23)c1F [Example 9, N-(3-(3-(9H-purin-6-yl)pyridin-2-ylamino)-2,4-difluorophenyl)-1-(2-nitrophenyl)methansulfonamide] | 1500 nM | – |
| O=S(=O)(Nc1ccc(F)c(Nc2ncccc2-c2ncnc3[nH]cnc23)c1F)N1CCOCC1 [Example 21, N-(3-(3-(9H-purin-6-yl)pyridin-2-ylamino)-2,4-difluorophenyl)morpholine-4-sulfonamide] | 1300 nM | 360 nM |
| CCCS(=O)(=O)Nc1ccc(F)c(Nc2ncccc2-c2ncnc3[nH]cnc23)c1F [Example 5, N-(3-(3-(9H-purin-6-yl)pyridin-2-ylamino)-2,4-difluorophenyl)propan-1-sulfonamide] | 23 nM | 310 nM |
| O=S(=O)(Nc1ccc(F)c(Nc2ncccc2-c2ncnc3[nH]cnc23)c1F)C1CC1 [Example 19, N-(3-(3-(9H-purin-6-yl)pyridin-2-ylamino)-2,4-difluorophenyl)cyclopropansulfonamide] | 50 nM | 250 nM |
| O=S(=O)(Nc1ccc(F)c(Nc2ncccc2-c2ncnc3[nH]cnc23)c1F)c1ccc(Cl)cc1F [Example 8, N-(3-(3-(9H-purin-6-yl)pyridin-2-ylamino)-2,4-difluorophenyl)-4-chloro-2-fluorobenzenesulfonamide] | 33.7 nM | 700 nM |
| O=S(=O)(Nc1ccc(F)c(Nc2ncccc2-c2ncnc3[nH]cnc23)c1F)C1CCCCC1 [Example 11, N-(3-(3-(9H-purin-6-yl)pyridin-2-ylamino)-2,4-difluorophenyl)cyclohexanesulfonamide] | 206 nM | 340 nM |
| O=S(=O)(Nc1ccc(F)c(Nc2ncccc2-c2ncnc3[nH]cnc23)c1F)c1cccc(Cl)c1 [Example 33, N-(3-(3-(9H-purin-6-yl)pyridin-2-ylamino)-2,4-difluorophenyl)-3-chloro benzenesulfonamide] | 80 nM | 770 nM |
| O=S(=O)(Nc1ccc(F)c(Nc2ncccc2-c2ncnc3[nH]cnc23)c1F)c1cccc2c1OCCC2 [Example 38, N-(3-(3-(9H-purin-6-yl)pyridin-2-ylamino)-2,4-difluorophenyl)chromane-8-sulfonamide] | 900 nM | 7190 nM |
| O=S(=O)(Nc1ccc(F)c(Nc2ncccc2-c2ncnc3[nH]cnc23)c1F)c1ccccc1 [Example 35, N-(3-(3-(9H-purin-6-yl)pyridin-2-ylamino)-2,4-difluorophenyl)benzenesulfonamide] | 20 nM | 160 nM |
| O=S(=O)(Nc1ccc(F)c(Nc2ncccc2-c2ncnc3[nH]cnc23)c1F)c1cccs1 [Example 4, N-(3-(3-(9H-purin-6-yl)pyridin-2-ylamino)-2,4-difluorophenyl)thiophene-2-sulfonamide] | 12 nM | 30 nM |
| O=S(=O)(Nc1ccc(F)c(Nc2ncccc2-c2ncnc3[nH]cnc23)c1F)c1cccnc1 [Example 30, N-(3-(3-(9H-purin-6-yl)pyridin-2-ylamino)-2,4-difluorophenyl)pyridin-3-sulfonamide] | 4 nM | 70 nM |
| CC(C)S(=O)(=O)Nc1ccc(F)c(Nc2ncccc2-c2ncnc3[nH]cnc23)c1F [Example 1, N-(3-(3-(9H-purin-6-yl)pyridin-2-ylamino)-2,4-difluorophenyl)propane-2-sulfonamide] | 17 nM | 120 nM |
| Cc1ccccc1S(=O)(=O)Nc1ccc(F)c(Nc2ncccc2-c2ncnc3[nH]cnc23)c1F [Example 31, N-(3-(3-(9H-purin-6-yl)pyridin-2-ylamino)-2,4-difluorophenyl)-2-methylbenzenesulfonamide] | 50 nM | 670 nM |
